Data reported in PMC7497630, “Coibamide A Targets Sec61 to Prevent Biogenesis of Secretory and Membrane Proteins” (ACS Chemical Biology, 2020).
Like-named read-outs stand apart in the source and are kept apart here. Bridge positions count the residues as written; N and C are the ends. Square brackets hold non-standard residues; d marks the D form. Peptide text beside a SMILES is read from it. * marks the point of attachment. NMe2Val = CC(C)[C@@H](C(=O)*)N(C)C; NMeI = CC[C@H](C)[C@H](NC)C(=O)O; NMeT = CN[C@H](C(=O)O)[C@@H](C)O; NMeL = CN[C@@H](CC(C)C)C(=O)O; dHiv = CC(C)[C@@H](O)C(=O)O; NMeS = CN[C@@H](CO)C(=O)O; dNMeA = CN[C@H](C)C(=O)O

Legend:
[1] = tested on: HCT116 cells; assay: Cell viability, Alamar Blue assay; assay type: cell-based, human
Description: (§1) Figure 1 Cytotoxicity of synthetic and Pra-containing coibamides. (A) Structure of CbA. (B) Human MDA-MB-231 breast cancer cells were treated with increasing concentrations of synthetic CbA or vehicle (0.1% DMSO) and cell viability assessed at 72 h by an MTS end-point assay. (C) Structure of Photo-CbA. (D) Human HCT116 cells were treated with increasing concentrations of synthetic or photo-CbA in 0.1% DMSO, and cell viability assessed at 72 h by Alamar Blue assay. TEXT PRINTED IN THE PICTURE: (B) CbA: MDA-MB-231 cell line: IC50(nM): 1.6 | (D) CbA: HCT 116 cell line: IC50(nM): 29.2 | (D) Photo-CbA: HCT 116 cell line: IC50(nM): 6.5
(§2) Figure 5 CbA mode of inhibition is specific compared to known Sec61 inhibitors. (A) Cell viability was measured by Alamar Blue assay (mean ± SD, n = 4, all cell lines assayed simultaneously) for HCT-116 cell lines isolated on the basis of CbA resistance in the presence of concentration series of indicated compounds. (B) Cell viability was measured by Alamar Blue assay (mean ± SD, n = 4, all cell lines assayed simultaneously) for HEK293FRT cells stably expressing Sec61α mutants in the presence of concentration series of indicated compounds. (C) Comparison of published NCI60 data for CbA,[3] AprA,[11] and IpoF.[33] The heat map was derived by plotting each GI50 value divided by the median GI50 for that compound. X indicates a cell line that was not tested. Closed arrowhead indicates cell lines with most notable differences across the three compounds. […]
(§3) A431, HEK293T, and HEK293FRT cells were cultured in DMEM supplemented with 10% FBS. […] Viability was estimated by the addition of Alamar Blue (Life Technologies) and measuring fluorescence after a further 4 h. […]

[2] = tested on: MDA-MB-231 breast cancer cells; assay: Cell viability, MTS end-point assay; assay type: cell-based, human; conditions: synthetic CbA, 72 h, vehicle 0.1% DMSO
Description: as §1
A431, HEK293T, and HEK293FRT cells were cultured in DMEM supplemented with 10% FBS. HCT-116 cells were cultured in McCoy’s 5A media supplemented with 10% FBS. U87-MG cells were cultured in Minimum Essential Media (MEM) with 10% FBS, L-glutamine (2 mM), and 1% penicillin and streptomycin. MDA-MB-231 cells were cultured in MEM with Earl’s salts plus 1% penicillin/streptomycin and 10% FBS. All cell lines were incubated at 37 °C under 5% CO2. The activity of synthetic coibamide and photoaffinity analogues was tested in MDA-MB-231 and A549 cells after 72 h by MTS assay. […] Viability was estimated by the addition of Alamar Blue (Life Technologies) and measuring fluorescence after a further 4 h. […]

[3] = molecular target: HEK293FRT cells stably expressing Sec61α WT (Homo sapiens, UniProt P61619); assay: Cell viability, Alamar Blue, Sec61α engineered lines; assay type: cell-based; conditions: 72 h, n = 4 (Figure 5B)
HEK293FRT cells stably expressing Sec61α WT, sequence (P61619 whole entry): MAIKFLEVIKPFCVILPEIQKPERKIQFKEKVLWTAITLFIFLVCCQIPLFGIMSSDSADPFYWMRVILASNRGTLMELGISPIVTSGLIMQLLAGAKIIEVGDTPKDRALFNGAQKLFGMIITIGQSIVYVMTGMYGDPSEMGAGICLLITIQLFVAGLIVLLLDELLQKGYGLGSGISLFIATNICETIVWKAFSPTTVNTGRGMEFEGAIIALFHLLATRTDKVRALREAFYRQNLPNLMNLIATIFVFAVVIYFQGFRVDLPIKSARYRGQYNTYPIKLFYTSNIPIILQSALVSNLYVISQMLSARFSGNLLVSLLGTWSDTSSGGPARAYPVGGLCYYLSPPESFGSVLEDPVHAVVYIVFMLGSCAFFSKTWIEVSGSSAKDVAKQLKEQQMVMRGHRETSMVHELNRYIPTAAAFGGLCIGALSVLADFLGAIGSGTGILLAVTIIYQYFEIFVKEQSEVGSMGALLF
Description: as §2, §3

[4] = tested on: A549 human lung adenocarcinoma cells; conditions: 72 h
[5] = tested on: HCT116 resistant line 100-3; assay: Cell viability, Alamar Blue, CbA-resistant line; assay type: cell-based, human; conditions: 72 h, n = 4 (Figure 5A), read-out: HCT116 Resistant lines IC50 (100-3)
Description: (§4) Figure 5 CbA mode of inhibition is specific compared to known Sec61 inhibitors. (A) Cell viability was measured by Alamar Blue assay (mean ± SD, n = 4, all cell lines assayed simultaneously) for HCT-116 cell lines isolated on the basis of CbA resistance in the presence of concentration series of indicated compounds. (B) Cell viability was measured by Alamar Blue assay (mean ± SD, n = 4, all cell lines assayed simultaneously) for HEK293FRT cells stably expressing Sec61α mutants in the presence of concentration series of indicated compounds. (C) Comparison of published NCI60 data for CbA,[3] AprA,[11] and IpoF.[33] The heat map was derived by plotting each GI50 value divided by the median GI50 for that compound. X indicates a cell line that was not tested. Closed arrowhead indicates cell lines with most notable differences across the three compounds. TEXT PRINTED IN THE PICTURE: (A) CbA: HCT116 Resistant lines IC50(nM): 24 (WT); HCT116 Resistant lines IC50(nM): 6500 (100-1); HCT116 Resistant lines IC50(nM): 7500 (100-2); HCT116 Resistant lines IC50(nM): 5800 (100-3); HCT116 Resistant lines IC50(nM): 7800 (100-4); HCT116 Resistant lines IC50(nM): 3800 (100-5) | (A) AprA: HCT116 Resistant lines IC50(nM): 80 (WT); HCT116 Resistant lines IC50(nM): >10000 (100-1); HCT116 Resistant lines IC50(nM): >10000 (100-2); HCT116 Resistant lines IC50(nM): >10000 (100-3); HCT116 Resistant lines IC50(nM): >10000 (100-4); HCT116 Resistant lines IC50(nM): >10000 (100-5) | (B) CbA: Sec61α engineered lines IC50(nM): 12 (WT); Sec61α engineered lines IC50(nM): 83 (R66I); Sec61α engineered lines IC50(nM): 20 (T86M); Sec61α engineered lines IC50(nM): 81 (S82P) | (B) AprA: Sec61α engineered lines IC50(nM): 24 (WT); Sec61α engineered lines IC50(nM): >10000 (R66I); Sec61α engineered lines IC50(nM): 2500 (T86M); Sec61α engineered lines IC50(nM): 4700 (S82P)
(§5) A431, HEK293T, and HEK293FRT cells were cultured in DMEM supplemented with 10% FBS. HCT-116 cells were cultured in McCoy’s 5A media supplemented with 10% FBS. U87-MG cells were cultured in Minimum Essential Media (MEM) with 10% FBS, L-glutamine (2 mM), and 1% penicillin and streptomycin. MDA-MB-231 cells were cultured in MEM with Earl’s salts plus 1% penicillin/streptomycin and 10% FBS. All cell lines were incubated at 37 °C under 5% CO2. The activity of synthetic coibamide and photoaffinity analogues was tested in MDA-MB-231 and A549 cells after 72 h by MTS assay. All other cell viability assays were performed by seeding PerkinElmer Viewplate-96 plates at a density of 2.5 × 10^3 cells per well. Cells were allowed 24 h to adhere and then treated with indicated concentrations of inhibitors or vehicle (0.1% DMSO) for a further 72 h. Viability was estimated by the addition of Alamar Blue (Life Technologies) and measuring fluorescence after a further 4 h. Pulse-labeling experiments were performed by seeding six-well plates with 5 × 10^5 cells per well and allowing 24 h for cells to adhere. Cells were washed twice with PBS, then exchanged into Met-Cys free media with indicated concentrations of inhibitors for 30 min. 100 μCi of PerkinElmer EXPRE^35S^35S Protein Labeling Mix was then added per well. Media wer collected, and the cells were harvested by scraping them into ice cold PBS after 30 min. Total protein was acquired by RIPA extraction from the cell pellet. Glycosylated protein was acquired by Concanavalin A purification, and secreted protein was acquired by TCA precipitation of the media. […]

[6] = tested on: HCT116 resistant line 100-4; assay: Cell viability, Alamar Blue, CbA-resistant line; assay type: cell-based, human; conditions: 72 h, n = 4 (Figure 5A), read-out: HCT116 Resistant lines IC50 (100-4)
Description: as §4, §5

[7] = tested on: HCT116 resistant line 100-2; assay: Cell viability, Alamar Blue, CbA-resistant line; assay type: cell-based, human; conditions: 72 h, n = 4 (Figure 5A), read-out: HCT116 Resistant lines IC50 (100-2)
Description: as §4, §5

[8] = tested on: HCT116 resistant line 100-1; assay: Cell viability, Alamar Blue, CbA-resistant line; assay type: cell-based, human; conditions: 72 h, n = 4 (Figure 5A), read-out: HCT116 Resistant lines IC50 (100-1)
Description: as §4, §5

[9] = tested on: HCT116 resistant line 100-5; assay: Cell viability, Alamar Blue, CbA-resistant line; assay type: cell-based, human; conditions: 72 h, n = 4 (Figure 5A), read-out: HCT116 Resistant lines IC50 (100-5)
Description: as §4, §5

**Q.** How did the IC50 ([1]; HCT116, 72 h, 0.1% DMSO (Figure 1D), read-out: IC50) turn out when CC[C@H](C)[C@H]1C(=O)N[C@@H](C)C(=O)N(C)[C@@H](CC(C)C)C(=O)N[C@@H](Cc2ccc(OC)cc2)C(=O)N(C)[C@H](C)C(=O)O[C@H](C)[C@H](N(C)C(=O)[C@H](CC(C)C)N(C)C(=O)[C@H](COC)N(C)C(=O)[C@H](OC(=O)[C@H](C(C)C)N(C)C)C(C)C)C(=O)N(C)[C@@H](COC)C(=O)N1C [CbA, Coibamide A] (NMe2Val-[dHiv][NMeS](Me)[NMeL][NMeT][NMeS](Me)[NMeI]A[NMeL]Y(Me)[dNMeA]; ester 4-C) was run?
**A.** Its IC50 is 29.2 nM.

**Q.** And the IC50 ([1]; HCT116 WT, 72 h, mean ± SD, n = 4 (Figure 5A), read-out: HCT116 Resistant lines IC50 (WT))?
**A.** The IC50 was 24 nM.

**Q.** And the IC50 [2]?
**A.** The IC50 was 1.6 nM.

**Q.** And the IC50 [3]?
**A.** The IC50 was 12 nM.

**Q.** And the IC50 [4]?
**A.** The IC50 was 2.1 ± 0.7 nM.

**Q.** What about the IC50 [5] of the same molecule?
**A.** Its IC50 is 5800 nM.

**Q.** What about the IC50 [6] of the same molecule?
**A.** Its IC50 is 7800 nM.

**Q.** And the IC50 [7]?
**A.** The IC50 was 7500 nM.

**Q.** And the IC50 [8]?
**A.** The IC50 was 6500 nM.

**Q.** What about the IC50 [9] of the same molecule?
**A.** The IC50 was 3800 nM.
